Reference: paper PMC12339163, “Combining Plant Bioactives With Antibiotics for Enhanced Antibiofilm Activity Against Uropathogenic Staphylococcus spp. and Cytotoxicity Evaluation” (Advances in Pharmacological and Pharmaceutical Sciences, 2025)
≈ marks a conversion by molar mass, not a printed value. Where “and” joins values, the source holds several entries; their conditions need not be identical. Equal entries are not always repeated. Where two headings read alike, the source gives them in different places.

Key:
[1] = test system: planktonic cells of Staphylococcus saprophyticus; assay: Checkerboard combination assay, planktonic cells; type: cell-based; conditions: S. saprophyticus, mean; for MIC: Staphylococcus saprophyticus
Protocol: (§1) The checkerboard assay, as previously described, was used for the determination of the fractional inhibitory concentration index (FICI). Briefly, 50 µL of MHB was distributed into each well of a 96-well microplate. ATBs were serially diluted along the abscissa, and NPs were serially diluted along the ordinate. Then, 100 µL of bacterial inoculum (1.5 × 10^6 CFU/mL) was added to each well and incubated at 37°C for 24 h. The final concentration ranged from 0.125 to 128 µg/mL for ATBs and 4–512 µg/mL for NPs. After incubation, a volume of 40 µL of INT solution (0.2 mg/mL) was added to each well, and the microplate was incubated at 37°C for 30 min. The wells containing bacterial inoculum and MHB were used as a positive control, while wells containing only MHB + 1% glucose were used as a negative control and used as a blank. Viable bacteria cells change the yellow dye of INT to a pink color. The MICs were considered to be the lowest NP concentrations that prevented the color change medium. Subsequently, the FICI was calculated according to the formula FICI = (MIC of the ATBs in combination/MIC of the ATBs alone) + (MIC of a natural substance in combination/MIC of the natural substance alone). FICI values were interpreted as follows: synergy when FICI ≤ 0.5; additive when 0.5 < FICI ≤ 1; indifference when 1 < FICI ≤ 4; and antagonism when FICI > 4.

[2] = test system: planktonic cells of Staphylococcus aureus; assay: Checkerboard combination assay, planktonic cells; type: cell-based; conditions: Staphylococcus aureus, S. aureus, mean
Protocol: as §1

[3] = test system: planktonic cells of Staphylococcus epidermidis; assay: Checkerboard combination assay, planktonic cells; type: cell-based; conditions: planktonic S. epidermidis, mean MIC; for MIC alone, NPs: natural product alone, in µg/mL; for MIC alone, ATB: antibiotic alone
Protocol: as §1

[4] = test system: S. aureus; assay: MIC and MBC, broth microdilution; type: cell-based, Staphylococcus aureus; conditions: Staphylococcus aureus, geometric mean, S. aureus (n = 3); for MIC: read-out: MIC; for MBC: read-out: MBC
Protocol: Seven clinical isolates of Staphylococcus spp. including 2 S. aureus, 3 S. saprophyticus, and 2 S. epidermidis were used. They were isolated from urine samples in our previous study. Two reference strains (S. aureus ATCC1026 and S. epidermidis ATCC35984) obtained from the American Type Culture Collection were also included. They were kept in the mixture of glycerol and Mueller Hinton Broth (MHB) (1:1) at −20°C, and the activation was achieved using the streak technique on Mueller Hinton agar (MHA) medium.
The MICs of ATBs and NPs were determined by the broth microdilution method as previously described. NPs and ATBs were, respectively, prepared at 4096 µg/mL and 512 µg/mL and serially diluted twofold with MHB in a 96-well microplate at a volume of 100 µL. Then, the wells were filled with 100 µL of inoculum (1.5 × 10^6 CFU/mL) to give final concentrations ranging from 1024 µg/mL to 0.5 µg/mL and 128 µg/mL to 0.062 µg/mL of NPs and ATBs, respectively. The microplates were incubated for 24 h at 37°C. Wells containing only bacterial inoculum were used as the negative control. After incubation, a volume of 40 µL of INT solution (0.2 mg/mL) was added to each well, and the microplate was incubated at 37°C for 30 min. Viable bacteria cells change the yellow dye of INT to a pink color. The MIC was considered as the lowest concentration of the sample at which there was no change in the coloration of the medium, corresponding to the complete inhibition of microbial growth.
All tests were performed in triplicate.

[5] = test system: Staphylococcus aureus biofilm; assay: Checkerboard combination assay, biofilm eradication; type: cell-based; conditions: for MBEC Alone ATB: antibiotic alone
Procedure, shortened: (§2)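 Biofilms preformed for 24 h were washed and exposed to antibiotics (0.0625–128 µg/mL) combined with NPs (4–512 µg/mL) for 24 h at 37°C in checkerboard format. Viability was read by MTT reduction to set MBEC, and FICI was calculated for the combination.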

[6] = test system: Staphylococcus saprophyticus biofilm; assay: as above; type: cell-based
Procedure, shortened: as §2

[7] = S. saprophyticus, biofilm eradication, mean
[8] = S. aureus biofilm eradication, mean MBEC
[9] = S. saprophyticus biofilm eradication, antibiotic alone, mean MBEC

Structure (SMILES)	MIC [4] [µg/mL]	MIC ([1]; 24 h, read-out: MIC alone, ATB) [µg/mL]	MIC ([1]; read-out: MIC alone, ATB) [µg/mL]	MIC ([2]; 24 h, read-out: MIC alone, ATB) [µg/mL]	MIC ([2]; read-out: MIC alone, ATB) [µg/mL]	MIC alone, ATB [3] [µg/mL]	MIC ([1]; 24 h, read-out: MIC alone, NPs) [µg/mL]	MIC ([1]; read-out: MIC alone, NPs) [µg/mL]	MIC ([2]; 24 h, read-out: MIC alone, NPs) [µg/mL]	MIC ([2]; read-out: MIC alone, NPs) [µg/mL]	MBC ([4]; natural products) [µg/mL]	MBEC Alone NPs [6, 7] [µg/mL]	MBC ([4]; antibiotics) [µg/mL]	MBEC Alone ATB [5, 8] [µg/mL]	MBEC Alone ATB [6, 9] [µg/mL]	further results
O=c1c(O)c(-c2ccc(O)c(O)c2)oc2cc(O)cc(O)c12 [Quercetin, quercetin]	341 (≈ 1130 µM)						427	427	427	341	> 1020					MIC alone, NPs ([1]; listed as Que): 341.33 µg/mL; MIC alone, NPs ([3]; listed as Que): 512 and 362.66
COc1ccc2cc3[n+](cc2c1OC)CCc1cc2c(cc1-3)OCO2 [Berberine, berberine]	139						213	213	139	139	> 1020	128				MIC alone, NPs ([1]; listed as Ber): 298.66 µg/mL; MBEC Alone NPs ([5]; S. aureus, biofilm eradication, mean): 149.33 µg/mL; MBEC Alone NPs ([6]; S. saprophyticus biofilm eradication, natural product alone, mean MBEC, listed as Ber): 128 µg/mL and 85.33 µg/mL and 106.66 µg/mL and 170.66 µg/mL
CC1=CC(=O)c2c(O)cccc2C1=O [Plumbagin, plumbagin]	6 (≈ 31.9 µM)						8.66	8.33	4.66	4.66	> 1020	10.66				

The next lines start with results.

MIC [4] [µg/mL]	MIC ([1]; 24 h, read-out: MIC alone, ATB) [µg/mL]	MIC ([1]; read-out: MIC alone, ATB) [µg/mL]	MIC ([2]; 24 h, read-out: MIC alone, ATB) [µg/mL]	MIC ([2]; read-out: MIC alone, ATB) [µg/mL]	MIC alone, ATB [3] [µg/mL]	Structure (SMILES)	MIC ([1]; 24 h, read-out: MIC alone, NPs) [µg/mL]	MIC ([1]; read-out: MIC alone, NPs) [µg/mL]	MIC ([2]; 24 h, read-out: MIC alone, NPs) [µg/mL]	MIC ([2]; read-out: MIC alone, NPs) [µg/mL]	MBC ([4]; natural products) [µg/mL]	MBEC Alone NPs [6, 7] [µg/mL]	MBC ([4]; antibiotics) [µg/mL]	MBEC Alone ATB [5, 8] [µg/mL]	MBEC Alone ATB [6, 9] [µg/mL]	further results
427 (≈ 2510 µM)						O=C(O)c1cc(O)c(O)c(O)c1 [Gallic acid, 3,4,5-trihydroxybenzoic acid]	427	427	427	427	> 1020					MIC alone, NPs ([3]; listed as Gal): 426.66 and 277.33; MBEC Alone NPs ([5]; S. aureus biofilm eradication, natural product alone, mean MBEC): 298.66 µg/mL
108 (≈ 147 µM)	4.66	4.66	108	108	32.7	CC[C@H]1OC(=O)[C@H](C)[C@@H](O[C@H]2C[C@@](C)(OC)[C@@H](O)[C@H](C)O2)[C@H](C)[C@@H](O[C@@H]2O[C@H](C)C[C@H](N(C)C)[C@H]2O)[C@](C)(O)C[C@@H](C)C(=O)[C@H](C)[C@@H](O)[C@]1(C)O [Erythromycin, erythromycin]							> 128	44	29.33	MBEC Alone ATB [6, 7]: 29.33 µg/mL
6.16 (≈ 13.9 µM)	32.2	32.2	6.16	6.16	7	C[C@H]1c2cccc(O)c2C(=O)C2=C(O)[C@]3(O)C(=O)C(C(N)=O)=C(O)[C@@H](N(C)C)[C@@H]3[C@@H](O)[C@@H]21 [Doxycycline, doxycycline]							32.7 (≈ 73.5 µM)	16	9.33	
